Patent US20240350392A1, “COMPOSITION WITH BIOLOGICALLY ACTIVE AGENT” (THE BOOTS COMPANY PLC, priority 2021, published 2024)
Residues, ends and D or L forms follow the SMILES beside them. *: point of attachment. Palmitoyl = CCCCCCCCCCCCCCCC(=O)*

Assay: Franz cell ex vivo skin explant penetration with 3D OrbiSIMS analysis
Type: in vitro ADME, human
Details: after 1 hour in Franz cell; formulation with glycerin+methyl gluceth-20 versus glycerin only (FIG. 1)
Method: For ex vivo analysis, full thickness human skin tissue was removed during cosmetic surgery from Caucasian female donors (aged 35-70). The explant was frozen immediately post-surgery, shipped and stored at −20° C. prior to use.
The tissue was then defrosted, cut and mounted, dermal side down, in a Franz-type static diffusion cell set-up (Franz, 1975), with an exposed surface area of 1.1 cm^2. Infinite doses of the cosmetic formulations were applied to the donor chamber, with the explant exposed to the formulations for 1 hour in a water bath set to 36.5° C. Sink conditions were maintained throughout the experiments.
After 1 hour, the Franz cell was dismantled, excess formulation was removed with a dry sponge and the skin explant was wiped with a sponge soaked in Teepol Solution (3% v/v). Next, the explant was dehydrated under vacuum at room temperature for 24 hours before 3D OrbiSIMS analysis 3D OrbiSIMS Analysis […]
A 20 KeV Ar 3000^+ analysis beam with a diameter of 20 μm was used as the primary ion source. Samples were analysed at ambient temperature across a 400×400 μm area in positive polarity with sawtooth raster mode and a total crater size of 486×486 μm. […] Mass spectra were recorded at a resolution of 240,000 at m/z 200 in the mass range of 75 to 1,125 m/z. […]

Compound: CCCCCCCCCCCCCCCC(=O)NCC(=O)N[C@@H](Cc1c[nH]cn1)C(=O)N[C@@H](CCCCN)C(=O)O [Pal-GHK, N-Palmitoyl-Gly-His-Lys] (Palmitoyl-Gly-His-Lys-OH; C-terminus assumed)
- Pal-GHK peptide ion intensity in skin explant: more peptide ion present
